Values quoted from earlier work as cited in PubChem BioAssay AID1259409 (Chemical Carcinogenesis Research Information System (CCRIS), 2018).

System: rodent chemically induced tumor inhibition, incidence and multiplicity
Test: CCRIS tumor inhibitor studies
Conditions: Route [Inhibitor]: ORAL, Species: RAT

For `C[C@]12CC[C@H](O)CC1=CC[C@@H]1[C@@H]2CC[C@]2(C)C(=O)CC[C@@H]12`, the “tumour outcome (control, treated, inhibition, significance)” value (Carcinogen: CYPROTERONE ACETATE [427-51-0], TESTOSTERONE PROPIONATE [57-85-2], N-METHYL-N-NITROSOUREA [684-93-4], Carcinogen: CYPROTERONE ACETATE [427-51-0], TESTOSTERONE PROPIONATE [57-85-2], N-METHYL-N-NITROSOUREA [684-93-4], Dose [Inhibitor]: 1000 MG/KG IN DIET FOR 13 WK BEGINNING 1 WK PRIOR TO MNU DOSE (STUDY DURATION: 14 MONTHS), Strain/Sex: WISTAR-UNILEVER/MALE, Target Tissue: Type of Lesion: PROSTATE AND SEMINAL VESICLE: ADENOCARCINOMA OR CARCINOSARCOMA, Dose [Carcinogen]: 50 MG/KB BW CA BY GAVAGE 1X/D FOR 21 D, 100 MG/KG BW TP SC 1X/D FOR 3 D BEGINNING 1 D POST LAST CA DOSE, 50 MG/KG BW MNU, Dose [Carcinogen]: 50 MG/KB BW CA BY GAVAGE 1X/D FOR 21 D, 100 MG/KG BW TP SC 1X/D FOR 3 D BEGINNING 1 D POST LAST CA DOSE, 50 MG/KG BW MNU, Promoter: TESTOSTERONE (CRYSTALLINE)) is listed as 27/32 (84%), 27/34 (79%), 6%, not significant, the “tumour outcome (control, treated, inhibition, significance)” value (Carcinogen: CYPROTERONE ACETATE [427-51-0], TESTOSTERONE PROPIONATE [57-85-2], N-METHYL-N-NITROSOUREA [684-93-4], Carcinogen: CYPROTERONE ACETATE [427-51-0], TESTOSTERONE PROPIONATE [57-85-2], N-METHYL-N-NITROSOUREA [684-93-4], Dose [Inhibitor]: 2000 MG/KG IN DIET FOR 13 WK BEGINNING 1 WK PRIOR TO MNU DOSE (STUDY DURATION: 14 MONTHS), Strain/Sex: WISTAR-UNILEVER/MALE, Target Tissue: Type of Lesion: PROSTATE AND SEMINAL VESICLE: ADENOCARCINOMA OR CARCINOSARCOMA, Dose [Carcinogen]: 50 MG/KB BW CA BY GAVAGE 1X/D FOR 21 D, 100 MG/KG BW TP SC 1X/D FOR 3 D BEGINNING 1 D POST LAST CA DOSE, 30 MG/KG BW MNU, Dose [Carcinogen]: 50 MG/KB BW CA BY GAVAGE 1X/D FOR 21 D, 100 MG/KG BW TP SC 1X/D FOR 3 D BEGINNING 1 D POST LAST CA DOSE, 30 MG/KG BW MNU, Promoter: TESTOSTERONE (CRYSTALLINE)) is listed as 24/30 (80%), 14/29 (48%), 40%, p<0.05 and the “tumour outcome (control, treated, inhibition, significance)” value (Carcinogen: CYPROTERONE ACETATE [427-51-0], TESTOSTERONE PROPIONATE [57-85-2], N-METHYL-N-NITROSOUREA [684-93-4], Carcinogen: CYPROTERONE ACETATE [427-51-0], TESTOSTERONE PROPIONATE [57-85-2], N-METHYL-N-NITROSOUREA [684-93-4], Dose [Inhibitor]: 2000 MG/KG IN DIET FOR 13 WK BEGINNING 1 WK PRIOR TO MNU DOSE (STUDY DURATION: 14 MONTHS), Strain/Sex: WISTAR-UNILEVER/MALE, Target Tissue: Type of Lesion: PROSTATE AND SEMINAL VESICLE: ADENOCARCINOMA OR CARCINOSARCOMA, Dose [Carcinogen]: 50 MG/KB BW CA BY GAVAGE 1X/D FOR 21 D, 100 MG/KG BW TP SC 1X/D FOR 3 D BEGINNING 1 D POST LAST CA DOSE, 50 MG/KG BW MNU, Dose [Carcinogen]: 50 MG/KB BW CA BY GAVAGE 1X/D FOR 21 D, 100 MG/KG BW TP SC 1X/D FOR 3 D BEGINNING 1 D POST LAST CA DOSE, 50 MG/KG BW MNU, Promoter: TESTOSTERONE (CRYSTALLINE)) is listed as 27/32 (84%), 22/32 (69%), 18%, not significant. For the same compound, the “tumour outcome (control, treated, inhibition, significance)” value (Carcinogen: CYPROTERONE ACETATE [427-51-0], TESTOSTERONE PROPIONATE [57-85-2], N-METHYL-N-NITROSOUREA [684-93-4], Carcinogen: CYPROTERONE ACETATE [427-51-0], TESTOSTERONE PROPIONATE [57-85-2], N-METHYL-N-NITROSOUREA [684-93-4], Dose [Inhibitor]: 2000 MG/KG IN DIET FOR 13 WK BEGINNING 20 WK POST MNU DOSE (STUDY DURATION: 14 MONTHS), Strain/Sex: WISTAR-UNILEVER/MALE, Target Tissue: Type of Lesion: PROSTATE AND SEMINAL VESICLE: ADENOCARCINOMA OR CARCINOSARCOMA, Dose [Carcinogen]: 50 MG/KB BW CA BY GAVAGE 1X/D FOR 21 D, 100 MG/KG BW TP SC 1X/D FOR 3 D BEGINNING 1 D POST LAST CA DOSE, 30 MG/KG BW MNU, Dose [Carcinogen]: 50 MG/KB BW CA BY GAVAGE 1X/D FOR 21 D, 100 MG/KG BW TP SC 1X/D FOR 3 D BEGINNING 1 D POST LAST CA DOSE, 30 MG/KG BW MNU, Promoter: TESTOSTERONE (CRYSTALLINE)) was 24/30 (80%), 15/30 (50%), 38%, p<0.05, the “tumour outcome (control, treated, inhibition, significance)” value (Carcinogen: CYPROTERONE ACETATE [427-51-0], TESTOSTERONE PROPIONATE [57-85-2], N-METHYL-N-NITROSOUREA [684-93-4], Carcinogen: CYPROTERONE ACETATE [427-51-0], TESTOSTERONE PROPIONATE [57-85-2], N-METHYL-N-NITROSOUREA [684-93-4], Dose [Inhibitor]: 2000 MG/KG IN DIET FOR 13 WK BEGINNING 40WK POST MNU DOSE (STUDY DURATION: 14 MONTHS), Strain/Sex: WISTAR-UNILEVER/MALE, Target Tissue: Type of Lesion: PROSTATE AND SEMINAL VESICLE: ADENOCARCINOMA OR CARCINOSARCOMA, Dose [Carcinogen]: 50 MG/KB BW CA BY GAVAGE 1X/D FOR 21 D, 100 MG/KG BW TP SC 1X/D FOR 3 D BEGINNING 1 D POST LAST CA DOSE, 30 MG/KG BW MNU, Dose [Carcinogen]: 50 MG/KB BW CA BY GAVAGE 1X/D FOR 21 D, 100 MG/KG BW TP SC 1X/D FOR 3 D BEGINNING 1 D POST LAST CA DOSE, 30 MG/KG BW MNU, Promoter: TESTOSTERONE (CRYSTALLINE)) was 24/30 (80%), 18/30 (60%), 25%, not significant and the “tumour outcome (control, treated, inhibition, significance)” value (Carcinogen: DIETHYLNITROSAMINE, 55-18-5, ACETYLAMINOFLUORENE, 53-96-3, Carcinogen: DIETHYLNITROSAMINE, 55-18-5, ACETYLAMINOFLUORENE, 53-96-3, Dose [Inhibitor]: 0, 0.6% IN DIET FOR A MAXIMUM OF 15 WK BEGINNING 15 WK POST INITIATION (STUDY DURATION: 56 WK), Strain/Sex: F344/MALE, Target Tissue: Type of Lesion: LIVER: CARCINOMA, Dose [Carcinogen]: 150 MG/KG DEN ONCE THEN 2 WK LATER 0.02% AAF IN DIET FOR 15 D WITH A PARTIAL HEPATECTOMY MIDWAY THROUGH TREATMENT, Promoter: NONE USED) was 8/8 (100%), 1/4 (25%), 75%, not calculated. For the same compound, the “tumour outcome (control, treated, inhibition, significance)” value (Carcinogen: DIETHYLNITROSAMINE, 55-18-5, N-METHYL-N-NITROSOUREA, 684-93-5, N-BUTYL-N-(4-HYDROXYBUTYL)NITROSAMINE, 3817-11-6, 1,2-DIM, Carcinogen: DIETHYLNITROSAMINE, 55-18-5, N-METHYL-N-NITROSOUREA, 684-93-5, N-BUTYL-N-(4-HYDROXYBUTYL)NITROSAMINE, 3817-11-6, 1,2-DIM, Dose [Inhibitor]: 0, 0.3% IN DIET FOR 23 WK BEGINNING 1 WK POST CARCINOGEN TREATMENT (STUDY DURATION: 28 WK), Strain/Sex: F344/MALE, Target Tissue: Type of Lesion: LARGE INTESTINE: ADENOMA, Dose [Carcinogen]: 100 MG/KG BW DEN ONCE, 20 MG/KG BW MNU ONCE ON DAYS 6,9, AND 12, 0.05% BBN IN DRINKING WATER FOR FIRST TWO WK, 40 MG/KG, Dose [Carcinogen]: 100 MG/KG BW DEN ONCE, 20 MG/KG BW MNU ONCE ON DAYS 6,9, AND 12, 0.05% BBN IN DRINKING WATER FOR FIRST TWO WK, 40 MG/KG, Promoter: NONE USED) was 3/20 (15%), 4/20 (20%), -33%, not significant.
